The values below come from patent US11166924B2, “N-methyl-d-aspartate receptor allosteric modulators and methods for their use” (Qingdao Primedicine Pharmaceutical Company, Ltd., priority 2016, dated 2021).

What is called EC50 is the concentration at which the effect is half-maximal.

SMILES strings stand for the structures.

What all share (format): cell-based
Assay [1] has as its target NMDARs in cultured hippocampal neurons (Rattus norvegicus, UniProt P35439+Q00959). Nature of the assay: Whole-cell voltage clamp recordings of NMDAR currents in cultured hippocampal/cortical neurons. The following applies: for Potentiation or depression of NMDAR-currents: tested in a similar fashion as Npam02, FIG. 4c.
The target in assay [2] is T1, GluN2A NMDARs in GluN2B-lacking neurons (Mus musculus, UniProt P35436+P35438).
T1 construct: endogenous in cells; host or cells: primary cortical neurons from GluN2B-knockout mouse embryos
Description: Whole-cell recordings in GluN2B-knockout cortical neurons. The note with it: 0.2 μM with NMDA 20 μM; conditional GluN2B-knockout neurons.

In a further assay the target is T2, GluN1/GluN2A NMDARs (Rattus norvegicus, UniProt P35439+Q00959).
T2 construct: expressed in transfected cells; host or cells: HEK293
T2 sequence (Q00959 23-1464, other chains not shown): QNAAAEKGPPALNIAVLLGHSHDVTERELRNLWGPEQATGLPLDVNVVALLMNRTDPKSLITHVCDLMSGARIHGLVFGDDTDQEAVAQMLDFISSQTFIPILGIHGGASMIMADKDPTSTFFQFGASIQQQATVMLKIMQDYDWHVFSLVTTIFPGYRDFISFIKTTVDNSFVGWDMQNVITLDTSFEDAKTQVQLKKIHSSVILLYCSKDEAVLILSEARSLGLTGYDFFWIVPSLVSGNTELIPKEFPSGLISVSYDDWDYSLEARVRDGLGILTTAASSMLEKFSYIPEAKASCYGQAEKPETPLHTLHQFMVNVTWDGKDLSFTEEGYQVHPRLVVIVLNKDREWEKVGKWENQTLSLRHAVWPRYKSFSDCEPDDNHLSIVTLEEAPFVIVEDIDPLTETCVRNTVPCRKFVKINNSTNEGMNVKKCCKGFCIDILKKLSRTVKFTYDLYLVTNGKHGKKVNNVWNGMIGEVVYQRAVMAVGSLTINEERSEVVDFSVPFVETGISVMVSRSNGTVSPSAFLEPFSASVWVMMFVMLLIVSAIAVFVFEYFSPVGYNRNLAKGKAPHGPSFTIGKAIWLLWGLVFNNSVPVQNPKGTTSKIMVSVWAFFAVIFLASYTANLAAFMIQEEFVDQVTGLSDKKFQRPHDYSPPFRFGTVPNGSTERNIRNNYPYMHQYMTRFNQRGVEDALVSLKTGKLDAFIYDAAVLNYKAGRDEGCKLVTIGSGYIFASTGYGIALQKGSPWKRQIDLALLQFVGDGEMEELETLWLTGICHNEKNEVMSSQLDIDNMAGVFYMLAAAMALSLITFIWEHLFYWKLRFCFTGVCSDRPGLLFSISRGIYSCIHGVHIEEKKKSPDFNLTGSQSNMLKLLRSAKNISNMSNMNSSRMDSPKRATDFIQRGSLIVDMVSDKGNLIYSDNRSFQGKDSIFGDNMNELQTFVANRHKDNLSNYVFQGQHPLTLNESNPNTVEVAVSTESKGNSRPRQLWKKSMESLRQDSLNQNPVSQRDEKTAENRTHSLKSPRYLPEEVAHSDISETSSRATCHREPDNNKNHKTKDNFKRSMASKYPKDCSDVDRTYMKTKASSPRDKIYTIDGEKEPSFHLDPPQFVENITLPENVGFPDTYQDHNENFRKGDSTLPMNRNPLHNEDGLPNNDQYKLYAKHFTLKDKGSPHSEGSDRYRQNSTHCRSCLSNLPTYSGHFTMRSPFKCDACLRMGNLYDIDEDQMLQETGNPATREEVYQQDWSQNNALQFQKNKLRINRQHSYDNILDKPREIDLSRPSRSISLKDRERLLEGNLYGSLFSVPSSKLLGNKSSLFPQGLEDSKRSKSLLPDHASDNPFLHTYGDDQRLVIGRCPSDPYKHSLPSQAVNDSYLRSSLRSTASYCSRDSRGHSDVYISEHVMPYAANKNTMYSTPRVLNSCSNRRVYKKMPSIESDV
Nature of the assay: Whole-cell patch clamp recordings in HEK293 cells transfected with GluN1/GluN2A. The following applies: for activation at 100 µM / activation at 50 µM: HEK293, Table 2, read-out: Normalized Potentiation GluN1/GluN2A; for activation at 50 µM: 50 μM (footnote *). How it is done: Cells were transfected with a combination of pcDNA3-CMV expression vectors, each of which expressed one of the rat recombinant (GluN2AWT, GluN1WT, GluN2BWT) subunits. The sequences of all plasmids were confirmed by automated DNA sequencing. Human Embryonic Kidney 293 (HEK293 cells) were cultured in Dulbecco's Modified Eagle's Medium (DMEM) (Invitrogen) supplemented with 10% fetal bovine serum (FBS). When HEK293 cells achieved 90% confluence, plasmids of either GluN1 & GluN2A or GluN1 & GluN2B were co-transfected into the cells using Lipofectamine 2000 (Invitrogen, 11668019) according to manufacturer's instructions. HEK293 cells were then maintained in the 37° C. incubator with […] and 5% CO2 for 48 hrs before being used in experiments. The transfection ratios for the NMDAR subunit combinations were all 1:1 (GluN1/GluN2A or GluN1/GluN2B).
Whole cell patch-clamp recordings were performed under voltage-clamp mode using an Axopatch 200B or 1D patch-clamp amplifier (Molecular Devices). Whole-cell currents were recorded at a holding potential of −60 mV unless indicated elsewhere, and signals were filtered at 2 kHz, digitized at 10 kHz (Digidata 1322A). Recording pipettes (3-5 MΩ) were filled with intracellular solution containing (mM): CsCl 140, HEPES 10, Mg-ATP 4, QX-314 5, pH 7.20; osmolarity, 290-295 mOsm. BAPTA (10 mM) was added in the intracellular solution (unless otherwise specified). The coverslips were continuously superfused with extracellular solution containing (mM): NaCl 140, KCl 5.4, HEPES 10, CaCl2 1.3, glucose 20, pH 7.4; osmolarity, 305-315 mOsm. NMDA-induced currents were applied by NMDA through perfusion fast-step (Warner Instruments). With perfusion fast-step system, NMDA application was achieved by using a two-square barrel glass tubing and depending on the age of the cultured neurons, CNQX (10 μM), TTX (0.5 μM) or BIC (10 μM) were added in the extracellular solution to minimize the activation of ionotropic glutamate receptors and voltage-gated sodium channels, respectively. All experiments were performed at room temperature. Recordings from at least six HEK293 cells/neurons were performed for all active compounds. Data were pooled among HEK293 cells or primary neurons and composite dose-response data were fitted by the equation Percentage Response=100×Relative Efficacy/[1+(EC50/Concentration)nH], where EC50 is the concentration of agonist that produces a half-maximal response, relative efficacy is the response at maximally effective concentration relative to the maximal response of glutamate, and nH is the Hill slope.
GluN1/GluN2A NMDAR subtypes are an attractive target for positive allosteric modulation. The present inventors employed in silico computational drug discovery methods to conduct a virtual screen of purchasable lead-like compounds from the ZINC database (Irwin, J., et al. Abstr Pap Am Chem Soc (2005) 230:U1009) and some synthetic compounds to identify potential GluN1/GluN2A-NMDAR modulators. The in silico methods included large-scale docking against the interstice interface of the GluN1/GluN2A heterodimer and consensus scoring to select compounds for empirical testing. Candidate compounds were further screened by using GluN1/GluN2A transiently transfected in human embryonic kidney (HEK293) cells and tested by whole-cell patch clamp recordings.
The inventors used transiently transfected HEK293 cells expressing either GluN1/GluN2A or GluN1/GluN2B NMDARs and tested by whole-cell voltage patch clamp recordings to see whether selected compounds were controlling the subtype selectivity profile of the drugs.
Whole-cell patch clamp recordings were performed to measure glutamate evoked currents with chloride-based pipette solutions at a holding potential of −60 mV.
(In general: In patch-clamp work, channel activity is measured electrically.)

The next assay addresses T3, GluN1/GluN2B NMDARs (Rattus norvegicus, UniProt P35439+Q00960).
T3 construct: expressed in transfected cells; host or cells: HEK293
Description: Whole-cell patch clamp recordings in HEK293 cells transfected with GluN1/GluN2B. The note with it: HEK293, Table 2, read-out: Normalized Potentiation GluN1/GluN2B; for activation at 50 µM: 50 μM (footnote *).

T3 sequence (Q00960 27-1482, other chains not shown): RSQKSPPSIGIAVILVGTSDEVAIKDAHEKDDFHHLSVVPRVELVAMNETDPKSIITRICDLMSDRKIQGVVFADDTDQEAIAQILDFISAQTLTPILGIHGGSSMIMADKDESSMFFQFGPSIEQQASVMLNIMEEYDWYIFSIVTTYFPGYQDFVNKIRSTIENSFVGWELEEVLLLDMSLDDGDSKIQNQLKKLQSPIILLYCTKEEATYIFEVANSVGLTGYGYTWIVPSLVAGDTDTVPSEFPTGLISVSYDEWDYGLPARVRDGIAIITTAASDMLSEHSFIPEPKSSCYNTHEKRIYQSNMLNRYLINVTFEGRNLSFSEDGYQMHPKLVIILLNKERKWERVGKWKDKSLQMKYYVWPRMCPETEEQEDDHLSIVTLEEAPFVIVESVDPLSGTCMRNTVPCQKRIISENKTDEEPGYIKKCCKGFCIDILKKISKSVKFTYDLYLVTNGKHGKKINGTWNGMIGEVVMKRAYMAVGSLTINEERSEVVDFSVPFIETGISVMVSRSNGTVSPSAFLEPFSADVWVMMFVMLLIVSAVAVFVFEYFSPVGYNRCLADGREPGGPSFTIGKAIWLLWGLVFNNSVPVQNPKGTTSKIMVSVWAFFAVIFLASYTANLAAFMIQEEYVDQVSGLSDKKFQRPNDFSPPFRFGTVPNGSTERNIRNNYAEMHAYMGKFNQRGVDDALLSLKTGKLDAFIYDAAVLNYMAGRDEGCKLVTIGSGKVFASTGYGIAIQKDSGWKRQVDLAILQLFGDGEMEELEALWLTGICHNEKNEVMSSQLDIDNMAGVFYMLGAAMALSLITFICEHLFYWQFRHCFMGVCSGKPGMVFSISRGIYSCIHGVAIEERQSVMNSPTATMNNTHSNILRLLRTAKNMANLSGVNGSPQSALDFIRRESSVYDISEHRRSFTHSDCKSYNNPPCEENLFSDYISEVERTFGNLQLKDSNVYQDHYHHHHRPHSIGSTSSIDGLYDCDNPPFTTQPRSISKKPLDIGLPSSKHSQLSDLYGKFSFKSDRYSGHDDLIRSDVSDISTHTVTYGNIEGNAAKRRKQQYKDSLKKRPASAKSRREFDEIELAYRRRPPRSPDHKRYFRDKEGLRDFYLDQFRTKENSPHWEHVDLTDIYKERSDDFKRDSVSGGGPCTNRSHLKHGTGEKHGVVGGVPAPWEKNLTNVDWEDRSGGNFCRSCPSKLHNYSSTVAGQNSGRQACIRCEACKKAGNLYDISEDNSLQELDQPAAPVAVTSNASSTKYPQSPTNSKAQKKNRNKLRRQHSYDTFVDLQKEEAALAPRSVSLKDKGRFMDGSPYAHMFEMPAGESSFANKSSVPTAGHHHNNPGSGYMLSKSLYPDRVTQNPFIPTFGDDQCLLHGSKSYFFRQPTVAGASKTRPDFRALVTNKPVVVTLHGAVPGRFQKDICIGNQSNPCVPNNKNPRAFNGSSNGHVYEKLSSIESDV
Chain of NMDARs in cultured hippocampal neurons (Q00959 23-1464, other chains not shown): as the sequence (Q00959 23-1464, other chains not shown) above

Turning to `N[C@@H](CCCP(=O)(O)O)C(=O)O` [APV, reference compound], in assay [1] (50 μM), the Block of currents entry is on record as “blocked all currents”.
Regarding `CN[C@H](CC(=O)O)C(=O)O` [NMDA, reference compound], the “pEC50 of NMDA dose-response curve” value in assay [1] (cultured hippocampal neurons, FIG. 13) is listed as 1.484±0.082 μM. In assay [1] (cultured hippocampal neurons, FIG. 13, read-out: EC50 of NMDA dose-response curve), the EC50 was 30.5 ± 11.7 µM.
As to `C[C@H](NC(c1cccc2[nH]c(=O)c(=O)[nH]c12)P(=O)(O)O)c1ccc(Br)cc1` (stereo partly shown) [NVP-AAM007, reference compound], the “Block of NMDAR-currents” value in assay [2] is recorded as 90.73±1.11%. In addition, the “Block of the Npam02-increased NMDAR currents” value at GluN1/GluN2A NMDARs (0.2 μM co-applied with both co-agonists) is “completely blocked”.
Take `O=C(N/N=C/c1cccc(O)c1O)c1ccccc1` [Npam01, (E)-N′-(2,3-dihydroxybenzylidene)benzohydrazide]: the activation at 100 µM is 26.2 ± 2.24% at GluN1/GluN2A NMDARs and -28 ± 5.11% on GluN1/GluN2B NMDARs. Moreover, the “Normalized Potentiation” value on GluN1/GluN2A NMDARs (Table 1, positive modulation of GluN1/GluN2A NMDARs, concentration not given) is 2.61 ± 9.69%. Also, the “Potentiation or depression of NMDAR-currents” value in assay [1] is on record as “no observable potentiation or depression effect”.
Regarding `Cc1ccccc1C(=O)N/N=C/c1cccc(O)c1O` [Npam04, (E)-N′-(2,3-dihydroxybenzylidene)-2-methylbenzohydrazide], the activation at 100 µM at GluN1/GluN2A NMDARs is 33.7 ± 4.84%; at GluN1/GluN2B NMDARs it was -54.6 ± 5.48%. The “Potentiation or depression of NMDAR-currents” value in assay [1] is “no observable potentiation or depression effect”.
Regarding `COc1cccc(/C=N/NC(=O)c2ccccc2)c1O` [Npam69, (E)-N′-(2-hydroxy-3-methoxybenzylidene)benzohydrazide], the results for the activation at 50 µM at GluN1/GluN2A NMDARs and on GluN1/GluN2B NMDARs were 11.1 ± 1.98% and -34 ± 2.47%, respectively.
`O=C(N/N=C/c1cccc(O)c1O)c1cc(O)cc(O)c1` [Npam70, (E)-N′-(2,3-dihydroxybenzylidene)-3,5-dihydroxybenzohydrazide]: the results for the activation at 50 µM at GluN1/GluN2A NMDARs and at GluN1/GluN2B NMDARs were -24.1 ± 2.47% and -45.6 ± 3.67%, respectively.
In the case of `Cc1cccc(C(=O)N/N=C/c2cccc(O)c2O)c1` [Npam71, (E)-N′-(2,3-dihydroxybenzylidene)-3-methylbenzohydrazide], the activation at 50 µM on GluN1/GluN2A NMDARs was 41.7 ± 6.78%; at GluN1/GluN2B NMDARs, -48.6 ± 4.77%.
Consider `COc1cc([N+](=O)[O-])cc(/C=N/NC(=O)c2ccccc2C)c1O` [Npam72, (E)-N′-(2-hydroxy-3-methoxy-5-nitrobenzylidene)-2-methylbenzohydrazide], for which the “Selectivity for GluN1/GluN2A versus GluN1/GluN2B NMDARs” value at GluN1/GluN2A NMDARs (FIG. 2, HEK293 cells expressing GluN1/GluN2A and GluN1/GluN2B) is listed as “selective for GluN1/GluN2A NMDARs”. Further, the figures for the activation at 100 µM on GluN1/GluN2A NMDARs and on GluN1/GluN2B NMDARs were 118 ± 18.5% and -24.2 ± 4.55%, respectively.
As for `O=C(N/N=C/c1cccc(O)c1O)c1ccc(Br)cc1` [Npam73, (E)-4-bromo-N′-(2,3-dihydroxybenzylidene)benzohydrazide], the activation at 50 µM on GluN1/GluN2A NMDARs is 30.7 ± 4.76%; at GluN1/GluN2B NMDARs, -49.9 ± 6.87%.
`COc1cc(Cl)cc(/C=N/NC(=O)c2ccccc2Br)c1O` [Npam75, (E)-2-bromo-N′-(5-chloro-2-hydroxy-3-methoxybenzylidene)benzohydrazide]: the values for the activation at 100 µM at GluN1/GluN2A NMDARs and on GluN1/GluN2B NMDARs were 57.2 ± 3.78% and -17 ± 2.14%, respectively.
